Experiments:
[1] = target: T1, matrix metalloproteinase-9 (Homo sapiens, UniProt P14780); test: Extracellular inhibition test on enzyme activity of secreted MMP-9 in cultured medium; assay type: biochemical; details: cultured medium of PMA induced HT 1080, different concentrations, 24 hours
T1 construct: matrix metalloproteinase-2 and matrix metalloproteinase-9 were secreted from the PMA induced HT 1080; endogenous in cells; host or cells: HT 1080 cells induced with 100 nM PMA
Procedure: HT 1080 cells with appropriate cell numbers were cultured in 60 mm culturing plates for 12 hours, respectively. After the cells were attached onto the bottom of the plate and formed a monolayer, the medium in the plate was removed. Fresh serum free mediums with different concentrations of a test sample were added to the plates, respectively, and 100 nM PMA was added to each plate to induce the cells to express great quantities of matrix metalloproteinase-2 and matrix metalloproteinase-9, and the plates were placed in a temperature of 37° C. for 24 hours. After centrifugation, each cultured supernatant were saved and mixed with SDS-sample buffer under the same protein contents which were then injected into a 10% SDS-polyacrylamide gel (containing 1 mg/ml gelatin) and then electrophoresed. After the electrophoresis was completed, the gel was taken out and washed with 20 mM Tris-HCl containing 25% isopropanol three times; 10 minutes per time. […]
HT 1080 cells were induced with PMA, and the cultured medium for culturing the HT 1080 cells therefrom was taken out and treated with the different concentrations of L-Glutamic acid γ-hydroxamate (DH) for 24 hours, respectively. After that the enzyme activities of the matrix metalloproteinase-2 and matrix metalloproteinase-9 in the medium were analyzed. […]

[2] = system: matrix metalloproteinase-2; test: RT-PCR, MMP-2 gene expression in HT 1080 cells; assay type: cell-based, Human
Procedure: (§1) 7. RNA Extraction and Reverse Transcription-Polymerase Chain Reaction (RT-PCR)
(§2) HT 1080 cells with appropriate cell numbers were cultured in 60 mm culturing plates for 6 hours, respectively. After the cells were attached onto the bottom of the plate and formed a monolayer, the medium in the plate was removed. Fresh serum free mediums with different concentrations of a test sample were added to the plates, respectively, and 100 nM PMA was added to each plate to induce the cells to express great quantities of matrix metalloproteinase-2 and matrix metalloproteinase-9, and the plates were placed in a temperature of 37° C. for 6 hours. After that, the total RNA of the cells were extracted with the TRIzol reagent and reverse transcripted by a reverse transcriptase to synthesize cDNA. The synthesize cDNA was used as a template to perform GADPH, matrix metalloproteinase-2 and matrix metalloproteinase-9 PCR amplifications.

[3] = system: matrix metalloproteinase-9; test: RT-PCR, MMP-9 gene expression in HT 1080 cells; assay type: cell-based, Human
Procedure: as §1, §2

HT 1080 cells = test: Cell adhesion assay (gelatin-coated plate); assay type: cell-based, Human
Procedure: 11. Cell Adhesion Assay (Lee et al., 2005; Ouyang et al., 2005; Zhang et al., 2005)
HT 1080 cells were used to prepare a cell suspension with an appropriate concentration by a fresh serum free medium, and the cell suspension was mixed with test drugs with different concentrations, respectively and then added to wells of a 24 well culturing plate pre-coated with gelatin, respectively. The 24 well culturing plates were placed in an incubator at 37° C. for 30 minutes. After that, the upper medium in each well was removed and the cells were washed with a PBS buffer twice, and then an MTT solution which was prepared with a medium was added to each well. After the 24 well culturing plates were placed in an incubator at 37° C. for reacting for 4-6 hours, an upper medium in each well was removed, and 100 μl of DMSO was added to each well to solubilize the formazan precipitates. After that, an ELISA reader was used to determine the absorbance at 600 nm for each well. The calculation for the adhesion rate of the cells was: […]

B16-F10 cell line = test: Tumor metastasis in an animal model (lung metastasis induced by B16-F10); assay type: in vivo, C57BL/6 mice; details: mice, 50 mg/kg/day, 21 days
Procedure: 12. Tumor Metastasis in an Animal Model (Itoh et al., 2005; Lee et al., 2005; Ouyang et al., 2005; Zhang et al., 2005)
Experimental animal: C57BL/6, gray-brown fur
C57BL/6 mice were injected with 2×10^5 cells/0.1 ml of a B16-F10 cell line by a tail intravenous injection. Then, on the next day the mice were injected with a physiological saline solution or 50 mg/kg drug, daily, for 3 weeks. The mice were sacrificed and their lungs were removed at the third week. The lungs were washed with a PBS buffer and fixed with Bouin's solution.

[4] = system: matrix metalloproteinase-2; test: Western blot analysis, MMP-2 protein expression in HT 1080 cells; assay type: cell-based, Human
Procedure: HT 1080 cells with appropriate cell numbers were cultured in 60 mm culturing plates for 12 hours, respectively. After the cells were attached onto the bottom of the plate and formed a monolayer, the medium in the plate was removed. Fresh serum-free mediums with different concentrations of a test drug were added to the plates, respectively, and 100 nM PMA was added to each plate to induce the cells to express great quantities of matrix metalloproteinase-2 and matrix metalloproteinase-9, and the plates were placed in a temperature of 37° C. for 24 hours. A quantitatively cultured supernatant in each plate was centrifuged or protein was extracted from cells in each plate to be quantitated, and then an SDS-sample buffer containing 2-ME was added therein to form a mixture. The mixture was injected into a 10% SDS-polyacrylamide gel […] and then electrophoresed. After electrophoresis was completed, the proteins in the gel were transferred to a PVDF membrane. The PVDF membrane was equilibrated with gelatin-NET at room temperature for 30 minutes. […]

[5] = HT 1080 cells, 0.4, 0.8, 1.2, and 1.6, 6 hours, RT-PCR
[6] = about 0.1-2 mM, stated as embodiment, 'and/or' MMP-9

T1 sequence (P14780 94-707): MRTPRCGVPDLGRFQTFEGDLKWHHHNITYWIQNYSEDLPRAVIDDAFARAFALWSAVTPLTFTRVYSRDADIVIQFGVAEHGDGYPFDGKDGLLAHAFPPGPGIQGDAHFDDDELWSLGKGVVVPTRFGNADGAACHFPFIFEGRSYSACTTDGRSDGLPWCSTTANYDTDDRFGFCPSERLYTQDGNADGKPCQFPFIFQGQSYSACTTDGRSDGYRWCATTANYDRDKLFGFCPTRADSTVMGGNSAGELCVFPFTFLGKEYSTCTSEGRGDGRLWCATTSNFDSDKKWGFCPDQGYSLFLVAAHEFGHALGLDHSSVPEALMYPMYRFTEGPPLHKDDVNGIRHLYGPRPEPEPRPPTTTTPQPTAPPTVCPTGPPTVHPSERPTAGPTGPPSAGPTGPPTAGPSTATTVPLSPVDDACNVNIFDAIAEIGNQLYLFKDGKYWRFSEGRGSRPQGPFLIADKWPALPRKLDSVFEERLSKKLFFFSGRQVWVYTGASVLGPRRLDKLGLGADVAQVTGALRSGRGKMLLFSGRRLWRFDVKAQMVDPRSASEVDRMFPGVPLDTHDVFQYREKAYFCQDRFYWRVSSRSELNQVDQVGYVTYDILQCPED

NC(CCC(=O)NO)C(=O)O [DH, L-Glutamic acid γ-hydroxamate]
direct inhibition of enzyme activity of secreted matrix metalloproteinase-9 [1]: no inhibition | gene expression (mRNA) of matrix metalloproteinase-2 [2, 5]: decreased | inhibition rate to the gene transcriptional expression of metalloproteinase-2 of a cancer cell [2, 6]: 20-80% | gene expression (mRNA) of matrix metalloproteinase-9 [3, 5]: decreased | inhibition rate to the gene transcriptional expression of matrix metalloproteinase-9 of a cancer cell ([3]; about 0.1-2 mM, stated as embodiment, 'and/or' MMP-2): 20-80% | number of HT 1080 cells attached (adhesion) (HT 1080 cells; 0.4, 1.2, 2 and 2.8 mM, gelatin coated plate, 30 minutes): slight dose dependent decreasing trend | inhibition rate to cancer cell adhesion (HT 1080 cells; about 0.1-3 mM, stated as embodiment): 10-30% | lung metastasis and amount of metastasized pulmonary nodules (B16-F10 cell line): significantly decreased | lung weight (B16-F10 cell line): recovered to a level similar to that of the control group | pathological symptoms (fur picking, weight loss, hind limb debility) due to cancer metastasis, compared to blank group (B16-F10 cell line): decreased | survival till the end of the experiment (B16-F10 cell line; blank group 2 of 6 survived): six mice all survived | protein expression amount of matrix metalloproteinase-2 secreted out of and left in HT 1080 cells ([4]; 0.4, 0.8, 1.2, and 1.6, 24 hours, Western blotting): all decreased | inhibition rate to the protein expression amount of metalloproteinase-2 of a cancer cell [4, 6]: 40-90%
